Experimental data as given in patent publication US5250527A, “Pyridyl containing benzimidazoles, compositions and use” (SmithKline & French Laboratories Limited, priority 1988, dated 1993).

Columns and labels:
H^+ -K^+ -ATPase = target: T1, H^+ -K^+ -ATPase (Sus scrofa, UniProt P19156); assay: K+ stimulated ATPase activity; type: biochemical; conditions: at pH 6.1 and 7.4; lyophilised gastric vesicles of pig fundic mucosa
T1 construct: alpha-beta complex
Experimental: The effects of a single high concentration (1 mM) of a compound of structure (I) on H^+ -K^+ ATPase were determined at pH 6.1 and pH 7.4.
Compounds of structure (I) were pre-incubated with H^+ -K^+ -ATPase preparation 30 μg protein/ml from (i) in 10 mM Pipes/Tris buffer pH 6.1 and pH 7.4.
After 30 min at 37° the preincubation was diluted 5-fold with assay buffer to start the ATPase reaction. The conditions in the assay are 100 mM Pipes/Tris, 2 mM MgCl2, 10 mM KCl, 5 μgml nigericin, 2 mM Na2 ATP, pH 7.0.
The effect of the same concentration of compound of structure (I) (preincubated with H^+ -K^+ -ATPase preparation at pH 7.4 as described above) on the recovery of 100 nmole of inorganic phosphate was also determined.
Compounds of structure (I) were initially dissolved in dimethyl sulphoxide, polyethylene glycol (Type 400) or Pipes/Tris buffer.
All data refer to the concentration of compound present in the preincubation before dilution with assay buffer.

[1] = tested on: rabbit intact gastric glands; assay: Aminopyrine (AP) accumulation in intact gastric glands; type: cell-based, New Zealand white rabbits; conditions: Oryctolagus cuniculus, 0.5 h, inhibition of aminopyrine accumulation, dibutyryl cAMP stimulated, pH 7.4, 30 min
Experimental: The effect of a single concentration (100 μm) of a compound of structure (I) on dibutyryl cAMP stimulated AP […] in rabbit intact gastric glands was determined. Preferred compounds of structure (I) were tested over a range of concentrations to determine the IC50 value.
Intact gastric glands were prepared from New Zealand white rabbits by the method of Berghindh et al. (Acta. Physio. Scand. 96, 150, 1976). Gastric mucosal scrapings were digested at 37° C. for 45-60 min. with Collagenase (100 U. Type 1. Sigma), and glands harvested by coarse filtration and sedimentation.
Test compound was incubated with glands and 300 μM dibutyryl CAMP for 30 minutes at […]. Incubating medium contained 132.5 mM NaCl, 5.4 Mm KCl, 1.0 mM NaH2 PO4. 5.0 mM Na2 HPO4, 1.2 mM MgSO4, 1.0 mM CaCl2, 11.1 mM glucose, 2.0 mg/ml rabbit albumin, 10 μg/ml phenol red, approximately 0.3 μM[^14 C] aminopyrine (110 mCi/mmole), pH 7.4.
After incubation, glands were centrifuged and the supernatant removed. The glands were dried, weighed and dissolved in NaOH. The distribution of radioactivity between the supernatant and glands is then used to calculate the AP ratio after the method of Berglindh et al. (Acta. Physiol. Scand. 97, 401, 1976).
The IC50 value is the amount of compound required to inhibit the […] accumulation of aminopyrine by 50%.

[2] = tested on: Histamine-Stimulated Gastric Acid Secretion; assay: Dog: Conscious Heidenhain Pouch (Histamine-Stimulated Gastric Acid Secretion); type: in vivo; conditions: Canis lupus familiaris, intravenous
From the text: B. Dog: Conscious Heidenhain Pouch (Histamine-Stimulated Gastric Acid Secretion)
Using dogs surgically prepared with Heidenhain pouches 1 to 3 years previously, inhibitory ED50 values against histamine stimulated gastric acid secretion after intravenous administration were obtained.

[3] = tested on: Histamine Stimulated Gastric Acid Secretion; assay: Rat: Lumen Perfumed Stomach (Histamine Stimulated Gastric Acid Secretion); type: in vivo; conditions: i.v.
From the text: C. Rat: Lumen Perfumed Stomach (Histamine Stimulated Gastric Acid Secretion)
Using a modification of the procedure described by Ghosh and Schild (Br. J. Pharmacology, 13, 54, 1958), ED50 values after either intraduodenal (i.d) or intravenous (i.v) administration were obtained as follows: […]

T1 sequence (P19156 whole entry): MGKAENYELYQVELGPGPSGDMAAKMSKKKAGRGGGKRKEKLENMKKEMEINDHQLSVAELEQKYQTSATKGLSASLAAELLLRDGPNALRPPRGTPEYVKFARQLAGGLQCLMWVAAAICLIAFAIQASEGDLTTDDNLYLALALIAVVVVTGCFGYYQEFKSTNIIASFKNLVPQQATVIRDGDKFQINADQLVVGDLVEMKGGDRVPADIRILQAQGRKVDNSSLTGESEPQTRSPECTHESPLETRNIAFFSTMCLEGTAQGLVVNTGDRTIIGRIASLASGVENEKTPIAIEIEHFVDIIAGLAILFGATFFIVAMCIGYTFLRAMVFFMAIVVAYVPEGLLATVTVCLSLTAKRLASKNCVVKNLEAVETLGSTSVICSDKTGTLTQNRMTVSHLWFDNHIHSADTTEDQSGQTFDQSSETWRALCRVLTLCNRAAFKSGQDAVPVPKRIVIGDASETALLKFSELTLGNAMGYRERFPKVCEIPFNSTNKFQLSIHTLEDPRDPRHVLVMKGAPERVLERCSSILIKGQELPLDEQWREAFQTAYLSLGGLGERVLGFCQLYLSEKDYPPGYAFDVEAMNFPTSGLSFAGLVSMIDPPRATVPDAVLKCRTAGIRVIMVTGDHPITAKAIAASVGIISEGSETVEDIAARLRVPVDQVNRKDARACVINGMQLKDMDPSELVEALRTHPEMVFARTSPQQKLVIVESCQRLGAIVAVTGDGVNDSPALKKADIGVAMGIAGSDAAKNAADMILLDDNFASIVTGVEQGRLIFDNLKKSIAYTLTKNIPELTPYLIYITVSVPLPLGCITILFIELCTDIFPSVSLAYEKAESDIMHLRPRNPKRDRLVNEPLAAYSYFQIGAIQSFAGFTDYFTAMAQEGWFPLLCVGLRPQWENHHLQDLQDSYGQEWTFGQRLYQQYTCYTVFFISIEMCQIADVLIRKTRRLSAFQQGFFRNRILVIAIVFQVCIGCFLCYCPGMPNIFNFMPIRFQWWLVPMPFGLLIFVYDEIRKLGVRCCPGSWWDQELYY
T1 sequence (P18434 whole entry partner): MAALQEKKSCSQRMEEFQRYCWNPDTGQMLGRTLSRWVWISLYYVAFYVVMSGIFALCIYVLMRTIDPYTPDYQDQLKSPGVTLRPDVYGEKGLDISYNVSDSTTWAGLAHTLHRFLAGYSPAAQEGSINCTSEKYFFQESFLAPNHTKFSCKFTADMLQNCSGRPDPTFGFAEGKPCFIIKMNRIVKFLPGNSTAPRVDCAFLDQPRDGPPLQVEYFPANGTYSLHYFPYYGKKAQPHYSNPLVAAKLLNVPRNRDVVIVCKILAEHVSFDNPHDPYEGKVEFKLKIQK

Molecule | inhibition of potassium stimulated ATPase activity (H^+ -K^+ -ATPase) | IC50 [1] | ED50 [2] | % inhibition at 1 μM/kg [3]
2-(4-piperidino-3-chloro-5-methyl-2-pyridylmethylsulphinyl)-4, 5-difluoromethylenedioxy-(1H)-benzimidazole [Example 24] | found to inhibit potassium stimulated ATPase activity | – | – | –
COc1ccc2[nH]c([S+]([O-])Cc3cc(N)c(Br)cn3)nc2c1 (stereo not drawn) [Example 2, 2 -(4 -amino-5 -bromo-2 -pyridylmethylsulphinyl)-5 -methoxy-(1H)-benzimidazole] | found to inhibit potassium stimulated ATPase activity | 6.6 µM | 2.94 µmol/kg | –
COc1ccc2[nH]c([S+]([O-])Cc3nccc(N4CCOCC4)c3Cl)nc2c1 (stereo not drawn) [Example 4, 2 -(4 -morpholino-3 -chloro-2 -pyridylmethylsulphinyl)-5 -methoxy-(1H)-benzimidazole] | found to inhibit potassium stimulated ATPase activity | 11 µM | 1 µmol/kg | –
COc1ccc2[nH]c([S+]([O-])Cc3ncc(C)c(N4CCOCC4)c3Cl)nc2c1 (stereo not drawn) [Example 6, 2 -(4 -morpholino-3 -chloro-5 -methyl-2 -pyridylmethylsulphinyl)-5 -methoxy-(1H)-benzimidazole] | found to inhibit potassium stimulated ATPase activity | 16.3 µM | 2.2 µmol/kg | –
COc1ccc2[nH]c([S+]([O-])Cc3ncc(C)c(N4CCCCC4)c3Cl)nc2c1 (stereo not drawn) [Example 8, 2 -(4 -piperidino-3 -chloro-5 -methyl-2 -pyridylmethylsulphinyl)-5 -methoxy-(1H)-benzimidazole] | found to inhibit potassium stimulated ATPase activity | 4.2 µM | – | –
COc1ccc2[nH]c([S+]([O-])Cc3nccc(N4CCCCC4)c3Cl)nc2c1 (stereo not drawn) [Example 10, 2 -(4 -piperidino-3 -chloro-2 -pyridylmethylsulphinyl)-5 -methoxy-(1H)-benzimidazole] | found to inhibit potassium stimulated ATPase activity | 2 µM | 1.2 µmol/kg | –
COc1ccc2[nH]c([S+]([O-])Cc3nccc(N4CCCC4)c3Cl)nc2c1 (stereo not drawn) [Example 12, 2 -(4 -pyrrolidino-3 -chloro-2 -pyridylmethylsulphinyl)-5 -methoxy-(1H)-benzimidazole] | found to inhibit potassium stimulated ATPase activity | 1 to 10 µM | – | –
COc1ccc2[nH]c([S+]([O-])Cc3ncc(C)c(N4CCCC4)c3Cl)nc2c1 (stereo not drawn) [Example 14, 2 -(4 -pyrrolidino-3 -chloro-5 -methyl-2 -pyridylmethylsulphinyl)-5 -methoxy-(1H)-benzimidazole] | found to inhibit potassium stimulated ATPase activity | 2.6 µM | – | –
COc1ccc2[nH]c([S+]([O-])Cc3ncc(C)c(N(C)C)c3Cl)nc2c1 (stereo not drawn) [Example 16, 2 -(4 -dimethylamino-3 -chloro-5 -methyl-2 -pyridylmethylsulphinyl)-5 -methoxy-(1H)-benzimidazole] | found to inhibit potassium stimulated ATPase activity | 3.7 µM | 0.29 µmol/kg | –
COc1ccc2[nH]c([S+]([O-])Cc3cc(N4CCCCC4)c(Br)cn3)nc2c1 (stereo not drawn) [Example 18, 2-(4-piperidino-5-bromo-2-pyridylmethylsulphinyl)-5-methoxy-(1H)-benzimidazole] | found to inhibit potassium stimulated ATPase activity | 1.6 µM | – | –
COc1ccc2[nH]c([S+]([O-])Cc3nccc(N4CCCCC4)c3Br)nc2c1 (stereo not drawn) [Example 20, 2-(4-piperidino-3-bromo-2-pyridylmethylsulphinyl)-5-methoxy-(1H)-benzimidazole] | found to inhibit potassium stimulated ATPase activity | 1.3 µM | – | –
COc1ccc2[nH]c([S+]([O-])Cc3ncc(Br)c(N4CCCCC4)c3C)nc2c1 (stereo not drawn) [Example 22, 2-(4-piperidino-5-bromo-3-methyl-2-pyridylmethylsulphinyl) -5-methoxy-(1H)-benzimidazole] | found to inhibit potassium stimulated ATPase activity | 9.2 µM | – | –
Cc1cnc(C[S+]([O-])c2nc3cc(OC(F)(F)C(F)F)ccc3[nH]2)c(Cl)c1N1CCCCC1 (stereo not drawn) [Example 23, 2-(4-piperidino-3-chloro-5-methyl-2-pyridylmethylsulphinyl)-5-(1,1,2,2-tetrafluoroethoxy)-(1H)-benzimidazole] | found to inhibit potassium stimulated ATPase activity | 1.9 µM | – | –
COc1ccc2[nH]c([S+]([O-])Cc3cc(N(C)C)c(Br)cn3)nc2c1 (stereo not drawn) [Example 25, 2-(4-dimethylamino-5-bromo-2-pyridylmethylsulphinyl)-5-methoxy-(1H)-benzimidazole] | found to inhibit potassium stimulated ATPase activity | – | 0.91 µmol/kg | –
COc1ccc2[nH]c([S+]([O-])Cc3cc(N4CCCC4)c(Br)cn3)nc2c1 (stereo not drawn) [Example 26, 2-(4-pyrrolidino-5-bromo-2-pyridylmethylsulphinyl)-5-methoxy-(1H)-benzimidazole] | found to inhibit potassium stimulated ATPase activity | – | – | –
COc1ccc2[nH]c([S+]([O-])Cc3nccc(N4CCOCC4)c3F)nc2c1 (stereo not drawn) [Example 28, 2-(4-morpholino-3-fluoro-2-pyridylmethylsulphinyl)-5-methoxy-(1H)-benzimidazole] | – | – | 2.75 µmol/kg | –
COc1ccc2[nH]c([S+]([O-])Cc3cc(N4CCOCC4)c(F)cn3)nc2c1 (stereo not drawn) [Example 30, 2-(4-morpholino-5-fluoro-2-pyridylmethylsulphinyl)-5-methoxy-(1H)-benzimidazole] | – | – | 5.07 µmol/kg | 51%
COc1ccc2[nH]c([S+]([O-])Cc3nccc(N(C)C)c3F)nc2c1 (stereo not drawn) [Example 32, 2-(4-dimethylamino-3-fluoro-2-pyridylmethylsulphinyl)-5-methoxy-(1H)-benzimidazole] | – | – | – | 26%
COc1ccc2[nH]c([S+]([O-])Cc3cc(N(C)C)c(F)cn3)nc2c1 (stereo not drawn) [Example 34, 2-(4-dimethylamino-5-fluoro-2-pyridylmethylsulphinyl)-5-methoxy-(1H)-benzimidazole] | – | – | – | 37%
COc1ccc2[nH]c([S+]([O-])Cc3ncc(F)c(N4CCOCC4)c3C)nc2c1 (stereo not drawn) [Example 36, 2-(4-morpholino-5-fluoro-3-methyl-2-pyridylmethylsulphinyl)-5-methoxy-(1H)-benzimidazole] | – | – | 2.05 µmol/kg | –
COc1cc2nc([S+]([O-])Cc3nccc(N4CCOCC4)c3F)[nH]c2cc1OC (stereo not drawn) [Example 38, 2-(4-morpholino-3-fluoro-2-pyridylmethylsulphinyl)-5,6-dimethoxy-(1H)-benzimidazole] | – | – | – | 33%
COc1cc2[nH]c([S+]([O-])Cc3nccc(N4CCOCC4)c3F)nc2cc1C (stereo not drawn) [Example 40, 2-(4-morpholino-3-fluoro-2-pyridylmethylsulphinyl)-5-methyl-6-methoxy-(1H)-benzimidazole] | – | – | 2.14 µmol/kg | –
COc1cc2nc([S+]([O-])Cc3nccc(N(C)C)c3F)[nH]c2cc1OC (stereo not drawn) [Example 42, 2-(4-dimethylamino-3-fluoro-2-pyridylmethylsulphinyl)-5,6-dimethoxy-(1H)-benzimidazole] | – | – | – | 46%
